Source: ChEMBL document CHEMBL1201862, “PubChem BioAssay data set” (2004)
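How tested: cells in 96-well plates exposed to compound for 48 hours at five concentrations. At the GI50, growth is halved.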 The source made the active and inactive calls. Rule as the data show it: active = GI50 up to about 1.1 µM and inactive = higher.

How the values were obtained:
Experiment in all cases: NCI tumour cell line growth inhibition, 48 h
[1] = test system: ACHN
[2] = test system: CAKI-1
[3] = test system: EKVX
[4] = test system: HCC 2998
[5] = test system: HCT-116
[6] = test system: HL-60
[7] = test system: HOP-92
[8] = test system: K562
[9] = test system: LOX IMVI
[10] = test system: NCI-H226
[11] = test system: NCI-H460
[12] = test system: OVCAR-5
[13] = test system: OVCAR-8
[14] = test system: SF-268
[15] = test system: SK-OV-3
[16] = test system: SN12C
[17] = test system: SR
[18] = test system: TK-10

Measured: GI50

O=C(Nc1ccc(Cl)c(C(F)(F)F)c1)C(=O)C(C(=O)/C=C/c1ccccc1)C1OC(=O)c2ccccc21 (stereo not drawn)
inactive: [1] > 100 µM | [2] > 100 µM | [3] > 100 µM | [4] > 100 µM | [5] 33.1 µM | [6] > 100 µM | [7] > 100 µM | [8] > 100 µM | [9] 90.2 µM | [10] > 100 µM | [11] > 100 µM | [12] > 100 µM | [13] > 100 µM | [14] > 100 µM | [15] > 100 µM | [16] > 100 µM | [17] > 100 µM | [18] > 100 µM

FC(F)(F)c1nc(-c2ccccc2)oc1Sc1oc(-c2ccccc2)nc1C(F)(F)F
inactive: [1] 28.8 µM | [2] 26.8 µM | [3] > 100 µM | [4] > 100 µM | [5] > 100 µM | [6] > 100 µM | [7] 39.1 µM | [8] > 100 µM | [9] > 100 µM | [10] 45.2 µM | [11] 99.1 µM | [12] > 100 µM | [13] 36.7 µM | [14] 52.5 µM | [15] 65.3 µM | [16] > 100 µM | [17] 46.6 µM | [18] > 100 µM

CCOP(=O)(OCC)/C(C#N)=C/c1ccco1
inactive: [1] > 100 µM | [2] > 100 µM | [3] > 100 µM | [4] > 100 µM | [5] > 100 µM | [6] > 100 µM | [7] > 100 µM | [8] > 100 µM | [9] > 100 µM | [10] > 100 µM | [11] > 100 µM | [12] > 100 µM | [13] > 100 µM | [14] > 100 µM | [15] > 100 µM | [16] > 100 µM | [17] > 100 µM | [18] > 100 µM

CS/C(=C(\S)c1ccccc1)c1ccccc1
inactive: [1] > 100 µM | [2] > 100 µM | [3] > 100 µM | [4] > 100 µM | [5] > 100 µM | [6] > 100 µM | [7] > 100 µM | [8] > 100 µM | [9] > 100 µM | [10] > 100 µM | [11] > 100 µM | [12] > 100 µM | [13] > 100 µM | [14] > 100 µM | [15] > 100 µM | [16] > 100 µM | [17] 50.6 µM | [18] > 100 µM

O=[N+]([O-])c1ccc(-c2ccc(-c3csc(Nc4ccccc4)n3)o2)cc1
inactive: [1] 17.3 µM | [2] 20.6 µM | [3] 19.1 µM | [4] 25.1 µM | [5] 21.5 µM | [6] 2.48 µM | [7] 19.5 µM | [8] 7.59 µM | [9] 18.5 µM | [10] 40.6 µM | [11] 34.8 µM | [12] 17.7 µM | [13] 19.5 µM | [14] 18.2 µM | [15] > 100 µM | [16] 18.6 µM | [17] 1.9 µM | [18] 19.1 µM

O=C1C2Nc3ccccc3SC2C(=O)N1c1ccccc1C(F)(F)F (stereo not drawn)
inactive: [1] 40.3 µM | [2] 24.9 µM | [3] 54.8 µM | [4] 16.7 µM | [5] 24.5 µM | [6] 5.19 µM | [7] 25 µM | [8] 3.99 µM | [9] 40.2 µM | [10] 43.1 µM | [11] 32.7 µM | [12] > 100 µM | [13] 33.7 µM | [14] 41.1 µM | [15] 23.7 µM | [16] 27.2 µM | [17] 32.7 µM | [18] 42.1 µM
